Among the data in patent US12570666B2, “Furoindazole derivatives” (Bayer Aktiengesellschaft, priority 2019, dated 2026) are IC50 values, retold here.

In the experiment the target is T1, human GPR84 receptor (Homo sapiens, UniProt Q9NQS5).
T1 construct: frozen aliquots prepared by acCELLerate; host or cells: CHO-K1
T1 sequence (Q9NQS5 whole entry): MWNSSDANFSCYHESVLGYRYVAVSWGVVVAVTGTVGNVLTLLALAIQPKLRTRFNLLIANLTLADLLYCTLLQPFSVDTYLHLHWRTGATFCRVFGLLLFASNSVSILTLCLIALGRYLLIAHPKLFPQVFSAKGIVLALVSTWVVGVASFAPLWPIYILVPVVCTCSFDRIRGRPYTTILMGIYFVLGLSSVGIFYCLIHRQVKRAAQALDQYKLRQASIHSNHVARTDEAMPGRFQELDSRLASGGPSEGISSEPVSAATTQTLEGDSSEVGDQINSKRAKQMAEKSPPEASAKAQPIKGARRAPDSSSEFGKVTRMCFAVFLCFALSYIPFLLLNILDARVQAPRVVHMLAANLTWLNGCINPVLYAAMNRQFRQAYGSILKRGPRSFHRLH
The experiment in a line: cAMP HTRF assay for identification of cellular GPR84 antagonists. The settings on record: CHO-K1 cells stably expressing human GPR84; Forskolin + agonist 6-OAU (EC80); average or median values. It is filed as cell-based. The method in brief:
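Forskolin-stimulated CHO-K1 cells stably expressing human GPR84, agonist-suppressed cAMP measured by HTRF (665/620 ratio) after lysis. Compounds at 11 concentrations, 20 μM to 0.07 nM, duplicate; normalized to DMSO and no-agonist controls; IC50 by 4-parameter fit.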
A general note: TR-FRET usually uses a lanthanide donor and a delayed reading to cut background.
The IC50 is the point on the concentration scale where inhibition reaches its midpoint. For the compound `Cc1conc1CNC(=O)c1oc2c(c1C)-c1nn(Cc3ccccn3)cc1CC2` [Example 26, 8-methyl-N-[(4-methyl-1,2-oxazol-3-yl)methyl]-2-(pyridin-2-ylmethyl)-4,5-dihydro-2H-furo[2,3-g]indazole-7-carboxamide], the IC50 stood at 1190 nM.
In the case of `Cc1noc(C)c1CNC(=O)c1oc2c(c1C)-c1nn(Cc3ccccn3)cc1CC2` [Example 27, N-[(3,5-dimethyl-1,2-oxazol-4-yl)methyl]-8-methyl-2-(pyridin-2-ylmethyl)-4,5-dihydro-2H-furo[2,3-g]indazole-7-carboxamide] it was 17500 nM.
`Cc1c(C(=O)NCCN2CC(C)(C)C2=O)oc2c1-c1nn(Cc3ccccn3)cc1CC2` [Example 28, N-[2-(3,3-dimethyl-2-oxoazetidin-1-yl)ethyl]-8-methyl-2-(pyridin-2-ylmethyl)-4,5-dihydro-2H-furo[2,3-g]indazole-7-carboxamide]: the IC50 was found to be 4570 nM.
As for `COCCNC(=O)c1oc2c(c1C)-c1nn(Cc3ccccn3)cc1CC2` [Example 29, N-(2-methoxyethyl)-8-methyl-2-(pyridin-2-ylmethyl)-4,5-dihydro-2H-furo[2,3-g]indazole-7-carboxamide], the IC50 was determined as 290 nM.
With `Cc1c(C(=O)NCc2nocc2C(=O)O)oc2c1-c1nn(Cc3ccccn3)cc1CC2` [Example 31, 3-[({[8-methyl-2-(pyridin-2-ylmethyl)-4,5-dihydro-2H-furo[2,3-g]indazol-7-yl]carbonyl}amino)methyl]-1,2-oxazole-4-carboxylic acid], the IC50 was above 20000 nM.
As for `Cc1c(C(=O)NCc2ncco2)oc2c1-c1nn(Cc3ccccn3)cc1CC2` [Example 32, 8-methyl-N-(1,3-oxazol-2-ylmethyl)-2-(pyridin-2-ylmethyl)-4,5-dihydro-2H-furo[2,3-g]indazole-7-carboxamide], the IC50 stood at 150 nM.
As for `Cc1c(C(=O)NC[C@@H]2CCOC2)oc2c1-c1nn(Cc3ccccn3)cc1CC2` [Example 33-1, 8-methyl-2-(pyridin-2-ylmethyl)-N-[(3S)-tetrahydrofuran-3-ylmethyl]-4,5-dihydro-2H-furo[2,3-g]indazole-7-carboxamide], the IC50 is 1890 nM.
Next, `Cc1c(C(=O)NC[C@H]2CCOC2)oc2c1-c1nn(Cc3ccccn3)cc1CC2` [Example 33-2, 8-methyl-2-(pyridin-2-ylmethyl)-N-[(3R)-tetrahydrofuran-3-ylmethyl]-4,5-dihydro-2H-furo[2,3-g]indazole-7-carboxamide]: 2890 nM.
In the case of `Cc1c(C(=O)NCc2ccn(C)n2)oc2c1-c1nn(Cc3ccccn3)cc1CC2` [Example 34, 8-methyl-N-[(1-methyl-1H-pyrazol-3-yl)methyl]-2-(pyridin-2-ylmethyl)-4,5-dihydro-2H-furo[2,3-g]indazole-7-carboxamide] it was 280 nM; in that of `Cc1c(C(=O)NCC2COC2)oc2c1-c1nn(Cc3ccccn3)cc1CC2` [Example 36, 8-methyl-N-(oxetan-3-ylmethyl)-2-(pyridin-2-ylmethyl)-4,5-dihydro-2H-furo[2,3-g]indazole-7-carboxamide], 1720 nM; in that of `Cc1c(C(=O)NCC2(F)COC2)oc2c1-c1nn(Cc3ccccn3)cc1CC2` [Example 37, N-[(3-fluorooxetan-3-yl)methyl]-8-methyl-2-(pyridin-2-ylmethyl)-4,5-dihydro-2H-furo[2,3-g]indazole-7-carboxamide], 9500 nM.
As to `Cc1c(C(=O)Nc2ccn(C)n2)oc2c1-c1nn(Cc3ccccn3)cc1CC2` [Example 40, 8-methyl-N-(1-methyl-1H-pyrazol-3-yl)-2-(pyridin-2-ylmethyl)-4,5-dihydro-2H-furo[2,3-g]indazole-7-carboxamide], the IC50 amounted to 670 nM.
Next, `Cc1c(C(=O)Nc2cccnc2)oc2c1-c1nn(Cc3ccccn3)cc1CC2` [Example 41, 8-methyl-N-(pyridin-3-yl)-2-(pyridin-2-ylmethyl)-4,5-dihydro-2H-furo[2,3-g]indazole-7-carboxamide]: 5420 nM; `Cc1c(C(=O)NCCc2ccccc2)oc2c1-c1nn(Cc3ccccn3)cc1CC2` [Example 42, 8-methyl-N-(2-phenylethyl)-2-(pyridin-2-ylmethyl)-4,5-dihydro-2H-furo[2,3-g]indazole-7-carboxamide]: 1530 nM; `Cc1c(C(=O)Nc2ccc(C#N)cc2)oc2c1-c1nn(Cc3ccccn3)cc1CC2` [Example 43, N-(4-cyanophenyl)-8-methyl-2-(pyridin-2-ylmethyl)-4,5-dihydro-2H-furo[2,3-g]indazole-7-carboxamide]: 11100 nM.
In the case of `Cc1c(C(=O)NC[C@@H]2CCCO2)oc2c1-c1nn(Cc3cccnc3)cc1CC2` [Example 44, 8-methyl-2-(pyridin-3-ylmethyl)-N-[(2S)-tetrahydrofuran-2-ylmethyl]-4,5-dihydro-2H-furo[2,3-g]indazole-7-carboxamide] it was 18 nM; in that of `Cc1c(C(=O)NC[C@@H]2COCCO2)oc2c1-c1nn(Cc3cccnc3)cc1CC2` [Example 45, N-[(2R)-1,4-dioxan-2-ylmethyl]-8-methyl-2-(pyridin-3-ylmethyl)-4,5-dihydro-2H-furo[2,3-g]indazole-7-carboxamide], 29 nM; in that of `Cc1c(C(=O)NC[C@@H]2CCCO2)oc2c1-c1nn(Cc3ccncc3)cc1CC2` [Example 46, 8-methyl-2-(pyridin-4-ylmethyl)-N-[(2S)-tetrahydrofuran-2-ylmethyl]-4,5-dihydro-2H-furo[2,3-g]indazole-7-carboxamide], 13 nM.
Turning to `Cc1c(C(=O)NC[C@@H]2COCCO2)oc2c1-c1nn(Cc3ccncc3)cc1CC2` [Example 47, N-[(2R)-1,4-dioxan-2-ylmethyl]-8-methyl-2-(pyridin-4-ylmethyl)-4,5-dihydro-2H-furo[2,3-g]indazole-7-carboxamide], the half-inhibitory concentration (IC50) is 19 nM.
In the case of `Cc1c(C(=O)NC[C@@H]2CCCO2)oc2c1-c1nn(CC3CC3)cc1CC2` [Example 48, 2-(cyclopropylmethyl)-8-methyl-N-[(2S)-tetrahydrofuran-2-ylmethyl]-4,5-dihydro-2H-furo[2,3-g]indazole-7-carboxamide] it was 97 nM.
`Cc1c(C(=O)NC[C@@H]2COCCO2)oc2c1-c1nn(CC3CC3)cc1CC2` [Example 49, 2-(cyclopropylmethyl)-N-[(2R)-1,4-dioxan-2-ylmethyl]-8-methyl-4,5-dihydro-2H-furo[2,3-g]indazole-7-carboxamide]: the IC50 stood at 110 nM.
Turning to `Cc1ccc(CNC(=O)c2oc3c(c2C)-c2nn(CC4COc5ncccc5O4)cc2CC3)cc1` (centres unmarked) [Example 53], the IC50 amounted to 32 nM.
On to `Cc1c(C(=O)NC[C@@H]2CCCO2)oc2c1-c1nn(Cc3cccc(C(F)(F)F)n3)cc1CC2` [Example 56, 8-methyl-N-[(2S)-tetrahydrofuran-2-ylmethyl]-2-{[6-(trifluoromethyl)pyridin-2-yl]methyl}-4,5-dihydro-2H-furo[2,3-g]indazole-7-carboxamide], for which the IC50 was 92 nM.
For `Cc1c(C(=O)NC[C@@H]2CCCO2)oc2c1-c1nn(Cc3ccc(C(F)(F)F)cn3)cc1CC2` [Example 57, 8-methyl-N-[(2S)-tetrahydrofuran-2-ylmethyl]-2-{[5-(trifluoromethyl)pyridin-2-yl]methyl}-4,5-dihydro-2H-furo[2,3-g]indazole-7-carboxamide], the half-inhibitory concentration (IC50) was found to be 190 nM.
Next, `Cc1c(C(=O)NC[C@@H]2CCCO2)oc2c1-c1nn(Cc3ncc(F)cc3Cl)cc1CC2` [Example 58, 2-[(3-chloro-5-fluoropyridin-2-yl)methyl]-8-methyl-N-[(2S)-tetrahydrofuran-2-ylmethyl]-4,5-dihydro-2H-furo[2,3-g]indazole-7-carboxamide]: 240 nM; `CCOc1cnc(Cn2cc3c(n2)-c2c(oc(C(=O)NC[C@@H]4CCCO4)c2C)CC3)c(Cl)c1` [Example 59, 2-[(3-chloro-5-ethoxypyridin-2-yl)methyl]-8-methyl-N-[(2S)-tetrahydrofuran-2-ylmethyl]-4,5-dihydro-2H-furo[2,3-g]indazole-7-carboxamide]: 70 nM.
In the case of `Cc1c(C(=O)NC[C@@H]2CCCO2)oc2c1-c1nn(Cc3ncccc3Cl)cc1CC2` [Example 60, 2-[(3-chloropyridin-2-yl)methyl]-8-methyl-N-[(2S)-tetrahydrofuran-2-ylmethyl]-4,5-dihydro-2H-furo[2,3-g]indazole-7-carboxamide] it was 27 nM; in that of `Cc1c(C(=O)NC[C@@H]2COCCO2)oc2c1-c1nn(Cc3ncccc3Cl)cc1CC2` [Example 61, 2-[(3-chloropyridin-2-yl)methyl]-N-[(2R)-1,4-dioxan-2-ylmethyl]-8-methyl-4,5-dihydro-2H-furo[2,3-g]indazole-7-carboxamide], 20 nM; in that of `Cc1cccnc1Cn1cc2c(n1)-c1c(oc(C(=O)NC[C@@H]3CCCO3)c1C)CC2` [Example 62, 8-methyl-2-[(3-methylpyridin-2-yl)methyl]-N-[(2S)-tetrahydrofuran-2-ylmethyl]-4,5-dihydro-2H-furo[2,3-g]indazole-7-carboxamide], 110 nM.
In the case of `Cc1cccnc1Cn1cc2c(n1)-c1c(oc(C(=O)NC[C@@H]3COCCO3)c1C)CC2` [Example 63, N-[(2R)-1,4-dioxan-2-ylmethyl]-8-methyl-2-[(3-methylpyridin-2-yl)methyl]-4,5-dihydro-2H-furo[2,3-g]indazole-7-carboxamide] it was 60 nM; in that of `Cc1ccc(Cn2cc3c(n2)-c2c(oc(C(=O)NC[C@@H]4CCCO4)c2C)CC3)nc1` [Example 64, 8-methyl-2-[(5-methylpyridin-2-yl)methyl]-N-[(2S)-tetrahydrofuran-2-ylmethyl]-4,5-dihydro-2H-furo[2,3-g]indazole-7-carboxamide], 28 nM.
For the compound `Cc1ccc(Cn2cc3c(n2)-c2c(oc(C(=O)NC[C@@H]4COCCO4)c2C)CC3)nc1` [Example 65, N-[(2R)-1,4-dioxan-2-ylmethyl]-8-methyl-2-[(5-methylpyridin-2-yl)methyl]-4,5-dihydro-2H-furo[2,3-g]indazole-7-carboxamide], the IC50 turned out to be 26 nM.
